These results are taken from patent publication US8338481B2, “Alkoxyalkyl S-prenylthiosalicylates for treatment of cancer” (Ramot at Tel-Aviv University Ltd., priority 2009, dated 2012).

Read-outs that look alike come from different tables or passages of the source.

Assay [1] concerns U87 cells (human glioblastoma cell line). As to conditions: U-87 cells; previously determined (Blum et al., Cancer Research 2005); read-out: IC50 of growth inhibition; cited from earlier work.
For assay [2], the system named is Panc-1 cells (human pancreatic carcinoma cell line). The note with it: previously determined (Weisz et al., Oncogene 1999), read-out: IC50 of growth inhibition; cited from earlier work.
Assay [3] shares this test system. The assay can be described thus: Inhibition of Panc-1 cell growth (cell counting). In kind it is cell-based. Here is the method: (§1) Human pancreatic cancer Panc-1 cells were obtained from American Tissue Culture Collection (ATCC) and grown in Dulbecco's modified Eagle medium (DMDM) containing 10% fetal calf serum, 2 mM L-glutamine, 100 U/mL penicillin, and 100 μg/mL streptomycin. The cells were incubated at 37° C. in a humidified atmosphere of 95% air and 5% CO2. Cells were plated in 24-well plates at a density of 5000 cells per well and grown for 24 hours. The medium was then replaced by a medium containing the desired concentration of methoxymethyl S-farnesylthiosalicylic acid and 0.1% DMSO, or by a medium containing 0.1% DMSO (control). Cells were maintained in culture for 5-7 days and then counted. Data are expressed as a percentage: (number cells in drug-treated culture/number cells in control culture×100). Experiments were performed twice in quadruplicates and means±SD are represented graphically in FIG. 1.
(§2) To establish efficacy of the newly synthesized compound FTS-MOME, Applicants prepared cell growth assays using human cancer cell lines. […]
First, to examine the effects of FTS-MOME on panc-1 cell growth (i.e., growth inhibition), the cells were incubated with and without FTS-MOME for five (5) days and the live cells were counted as a percentage of control over concentration of FTS-MOME (μM). […]

Assay [4] has as its system U87 cells (human glioblastoma cell line). Put plainly: Inhibition of U87 cell growth (cell counting). In kind it is cell-based. As to conditions: U-87 cells. Here is the method: as §1, with “glioblastoma U87” for “pancreatic cancer Panc-1”, “drug treated” for “drug-treated”, “control×100). Experiment was” for “control culture×100). Experiments were”, “2.” for “1.”
as §2
Next, to examine the effects of FTS-MOME on U-87 cell growth (i.e., growth inhibition), the cells were incubated with and without FTS-MOME for five (5) days and the live cells were counted as a percentage of control over concentration of FTS-MOME (μM). […]

Setting [5] is: concentration range of 6-100 μM, five days.

`CC(C)=CCC/C(C)=C/CC/C(C)=C/CSc1ccccc1C(=O)O` [FTS, S-trans, trans-farnesylthiosalicylic acid]: the IC50 was 50 µM in assay [1] and 35 µM in assay [2].

In the case of `COCOC(=O)c1ccccc1SC/C=C(\C)CC/C=C(\C)CCC=C(C)C` [FTS-MOME, methoxymethyl S-farnesylthiosalicylate], the IC50 in assay [3] (Homo sapiens, 120 h, incubated five days, live cells counted as percentage of control, read-out: IC50 (concentration causing 50% inhibition of cell growth)) was 15 µM; in assay [4] (Homo sapiens, U-87 MG, 120 h, incubated five days, live cells counted as percentage of control, read-out: IC50 (concentration causing 50% inhibition of cell growth)), 15 µM. For the same compound, the “live cancer cell number” value in assay [3] (setting [5]) and in assay [4] (setting [5]) was “dose-dependent decrease” each time.
